Series [1] relates to HBV. As to the kind of experiment: Anti-viral assay in HepG2.2.15 cells: anti-HBV activity, HBV DNA in culture medium by qPCR. Format: cell-based. The method, then:
(§1) HepG2.2.15 (the HepG2.2.15 cell line can be produced by transfection of the HepG2 cell line as described in Sells, Chen, and Acs 1987 (Proc. Natl. Acad. Sci. USA 84: 1005-1009), and the HepG2 cell line is available from ATCC® under number HB-8065™)
(§2) HepG2.2.15 cells were plated into 96-well plate in 2% FBS culture medium at the density of 40,000 cells/well and 5,000cells/well for HBV inhibitory activity and cytotoxicity determination, respectively. After incubation at 37° C., 5% CO2 overnight, cells were treated with medium containing compounds for 6 days with medium and compounds refreshed after 3 days of treatment. Each compound was tested in a 1:3 serial dilutions at 8 different concentrations in triplicate. The highest concentration of the compounds was 10 uM or 1 uM for anti-HBV activity assay and 100 uM for cytotoxicity determination.
The change of HBV DNA level induced by the compounds was assessed by quantitative real-time polymerase chain reaction (qPCR). Briefly, the HBV DNA in the culture medium was extracted using QIAamp 96 DNA Blood Kit according to the manual and then quantified by real-time PCR assay using the primers and probe in the table 1 below.
(§3) EC50 and CC50 values are calculated by the […] PRISM software.
On the technique in general: In qPCR the cycle at which signal appears reflects the starting amount.

Series [2] is described as follows: Cytotoxicity determination in HepG2.2.15 cells (CCK-8 assay). Format: cell-based. Conditions: human, 6 days treatment, CCK-8, highest concentration 100 uM. As for the experimental part:
as §1, §2
Cell viability was determined by CCK-8 assay. After 6 days of compounds treatment, 20 μl CCK-8 reagents were added to each well of cytotoxicity assay plates. Cell plates were incubated at 37° C., 5% CO2 for 2.5 h. The absorbance at 450 nm wavelength and the absorbance at 630 nm wavelength as reference was measured.
as §3

Setting [3] is: HepG2.2.15 cells, 6 days treatment, HBV DNA by qPCR, read-out: EC50.
Setting [4] is: Hepatitis B virus, HepG2.2.15, 144 h, HepG2.2.15 cells, 6 days treatment, HBV DNA by qPCR, read-out: EC50.

Like-named read-outs stand apart in the source and are kept apart here.

As usually defined, the EC50 is the concentration needed to bring the measured effect to its halfway point. Broadly, the CC50 is the concentration giving 50% cytotoxicity. With `CCOC(=O)C1=C(CN2CCN3C(=S)N(C)C[C@@H]3[C@H]2C(=O)O)NC(c2nccs2)=N[C@H]1c1cccc(F)c1C` (single isomer, unassigned) [Compound 35A], the EC50 in series [1] (setting [3]) worked out at 47.9 nM. In addition, the CC50 at 6 days in series [2] stood at 77000 nM.

`CCOC(=O)C1=C(CN2CCN3C(=NC(C)=O)N(CC(C)(C)C(=O)O)CC3C2)NC(c2nccs2)=N[C@H]1c1cccc(F)c1C` (stereo partly drawn) [Compound 8, (S)-3-(3-(Acetylimino)-7-((5-(ethoxycarbonyl)-6-(3-fluoro-2-methylphenyl)-2-(thiazol-2-yl)-3,6-dihydropyrimidin-4-yl)methyl)hexahydroimidazo[1,5-a]pyrazin-2(3H)-yl)-2,2-dimethylpropanoic acid] came in with an EC50 in series [1] (Hepatitis B virus, HepG2.2.15, 144 h) of 790 nM. In series [2], this compound came in with a CC50 at 6 days of more than 100000 nM.

In the case of `CCOC(=O)C1=C(CN2CCN3C(=S)N(CC(C)(C)C(=O)O)C[C@@H]3C2)NC(c2nccs2)=N[C@@H]1c1ccc(F)c(F)c1C` (single isomer, unassigned) [Compound 15A, 3-(7-((6-(3,4-Difluoro-2-methylphenyl)-5-(ethoxycarbonyl)-2-(thiazol-2-yl)-3,6-dihydropyrimidin-4-yl)methyl)-3-thioxohexahydroimidazo[1,5-a]pyrazin-2(3H)-yl)-2,2-dimethylpropanoic acid], the EC50 in series [1] (setting [4]) was 4.6 nM. This compound also registered a CC50 at 6 days in series [2] of 25600 nM.

Turning to `CCOC(=O)C1=C(CN2CCN3C(=NC#N)N(CC(C)(C)C(=O)O)CC3C2)NC(c2nccs2)=N[C@H]1c1cccc(F)c1C` (stereo partly drawn) [Compound 2, 3-(3-(cyanoimino)-7-(((S)-5-(ethoxycarbonyl)-6-(3-fluoro-2-methylphenyl)-2-(thiazol-2-yl)-3,6-dihydropyrimidin-4-yl)methyl)hexahydroimidazo[1,5-a]pyrazin-2(3H)-yl)-2,2-dimethylpropanoic acid], the EC50 in series [1] (setting [4]) is 49 nM. The CC50 at 6 days in series [2] came out at 55400 nM.

Take `COC(=O)C1=C(CN2CCN3C(=S)N(CC(C)(C)C(=O)O)CC3C2)NC(c2nccs2)=NC1c1cccc(F)c1C` (single isomer, unassigned) [Compound 10B, 3-(-7-((6-(3-Fluoro-2-methylphenyl)-5-(methoxycarbonyl)-2-(thiazol-2-yl)-3,6-dihydropyrimidin-4-yl)methyl)-3-thioxohexahydroimidazo[1,5-a]pyrazin-2(3H)-yl)-2,2-dimethylpropanoic acid]: the EC50 in series [1] (setting [4]) turned out to be 2.9 nM. The compound also displayed a CC50 at 6 days in series [2] of 23200 nM.

As to `COC(=O)C1=C(CN2CCN3C(=S)N(CC(C)(C)C(=O)O)C[C@@H]3C2)NC(c2nccs2)=N[C@@H]1c1ccc(F)cc1Br` (single isomer, unassigned) [Compound 16A, 3-(7-((6-(2-Bromo-4-fluorophenyl)-5-(methoxycarbonyl)-2-(thiazol-2-yl)-3,6-dihydropyrimidin-4-yl)methyl)-3-thioxohexahydroimidazo[1,5-a]pyrazin-2(3H)-yl)-2,2-dimethylpropanoic acid], in series [1] (setting [4]), the EC50 is 4.5 nM. The compound also registered a CC50 at 6 days in series [2] of 15300 nM.

With `CCOC(=O)C1=C(CN2CCN3C(=S)N(CC(C)(C)C(=O)O)CC[C@@H]3C2)NC(c2nccs2)=N[C@H]1c1cccc(F)c1C` [Compound 6A, 3-((R)-2-(((S)-5-(ethoxycarbonyl)-6-(3-fluoro-2-methylphenyl)-2-(thiazol-2-yl)-3,6-dihydropyrimidin-4-yl)methyl)-6-thioxohexahydro-2H-pyrazino[1,2-c]pyrimidin-7(6H)-yl)-2,2-dimethylpropanoic acid], in series [1] (setting [4]), the EC50 is 19.4 nM. The same compound gave a CC50 at 6 days in series [2] of 11400 nM.

`CCOC(=O)C1=C(CN2CCN3C(=S)N(CC(CC)C(=O)O)CC3C2)NC(c2nccs2)=N[C@H]1c1cccc(F)c1C` (stereo partly drawn) [Compound 17, 2-((7-(((S)-5-(ethoxycarbonyl)-6-(3-fluoro-2-methylphenyl)-2-(thiazol-2-yl)-3,6-dihydropyrimidin-4-yl)methyl)-3-thioxohexahydroimidazo[1,5-a]pyrazin-2(3H)-yl)methyl)butanoic acid]: the EC50 in series [1] (setting [4]) came out at 5.6 nM. In series [2], this compound registered a CC50 at 6 days of 13200 nM.

For the compound `CCOC(=O)C1=C(CN2CCN3C(=S)N(CC(C)(C)C(=O)O)C[C@@H]3C2)NC(c2nccs2)=N[C@H]1c1ccc(C)cc1F` (single isomer, unassigned) [Compound 25A, 3-(7-((5-(Ethoxycarbonyl)-6-(2-fluoro-4-methylphenyl)-2-(thiazol-2-yl)-3,6-dihydropyrimidin-4-yl)methyl)-3-thioxohexahydroimidazo[1,5-a]pyrazin-2(3H)-yl)-2,2-dimethylpropanoic acid], in series [1] (setting [4]), the EC50 worked out at 91.6 nM. In series [2], this compound gave a CC50 at 6 days of 31000 nM.

Consider `CCOC(=O)C1=C(CN2CCN3C(=S)N(CC4(C(=O)O)CC4)C[C@@H]3C2)NC(c2nccs2)=N[C@H]1c1cccc(F)c1Cl` (single isomer, unassigned) [Compound 18B, 1-((7-((6-(2-chloro-3-fluorophenyl)-5-(ethoxycarbonyl)-2-(thiazol-2-yl)-3,6-dihydropyrimidin-4-yl)methyl)-3-thioxohexahydroimidazo[1,5-a]pyrazin-2(3H)-yl)methyl)cyclopropane-1-carboxylic acid], for which, in series [1] (setting [4]), the concentration for a half-maximal effect (EC50) came to 1.5 nM. Moreover, the CC50 at 6 days in series [2] is 13000 nM.

As for `CCOC(=O)C1=C(CN2CCN3C(=S)N([C@@H]4CC[C@H](C(=O)O)C4)CC3C2)NC(c2nccs2)=N[C@H]1c1cccc(F)c1C` (single isomer, unassigned) [Compound 24A], the EC50 in series [1] (setting [3]) is 39.1 nM. In series [2], the CC50 at 6 days is 15500 nM.

Turning to `CCOC(=O)C1=C(CN2CCN3C(=S)N([C@H]4CC[C@@H](C(=O)O)C4)CC3C2)NC(c2nccs2)=N[C@H]1c1cccc(F)c1C` (single isomer, unassigned) [Compound 24C], the EC50 in series [1] (setting [3]) turned out to be 1.4 nM. Also, the CC50 at 6 days in series [2] came out at 11600 nM.

Take `CCOC(=O)C1=C(CN2CCN3C(=CC#N)N(CC(C)(C)C(=O)O)CC3C2)NC(c2nccs2)=N[C@H]1c1cccc(F)c1C` (stereo partly drawn) [Compound 7, 3-(3-(Cyanomethylene)-7-(((S)-5-(ethoxycarbonyl)-6-(3-fluoro-2-methylphenyl)-2-(thiazol-2-yl)-3,6-dihydropyrimidin-4-yl)methyl)hexahydroimidazo[1,5-a]pyrazin-2(3H)-yl)-2,2-dimethylpropanoic acid]: in series [1] (setting [4]), the EC50 is 720 nM. The compound also came in with a CC50 at 6 days in series [2] of 68700 nM.

As for `CCOC(=O)C1=C(CN2CCN3C(=S)N(C)C[C@@H]3[C@H]2C(=O)O)NC(c2nccs2)=N[C@H]1c1cccc(F)c1Cl` (single isomer, unassigned) [Compound 19B, (trans)-7-((6-(2-chloro-3-fluorophenyl)-5-(ethoxycarbonyl)-2-(thiazol-2-yl)-3,6-dihydropyrimidin-4-yl)methyl)-2-methyl-3-thioxooctahydro-imidazo[1,5-a]pyrazine-8-carboxylic acid], the EC50 in series [1] (setting [4]) came out at 1.8 nM. In addition, in series [2], half-maximal cytotoxicity (CC50 at 6 days) was put at 51200 nM.

Regarding `CCOC(=O)C1=C(CN2CCN3C(=S)N(CC(C)(C)C(=O)O)CC3C2)NC(c2nccs2)=NC1c1ccc(F)cc1Br` (single isomer, unassigned) [Compound 13A, 3-(7-((6-(2-Bromo-4-fluorophenyl)-5-(ethoxycarbonyl)-2-(thiazol-2-yl)-3,6-dihydropyrimidin-4-yl)methyl)-3-thioxohexahydroimidazo[1,5-a]pyrazin-2(3H)-yl)-2,2-dimethylpropanoic acid], the 50% effective concentration (EC50) in series [1] (setting [4]) was determined as 1 nM. Further, in series [2], the CC50 at 6 days was 14700 nM.

In the case of `CCOC(=O)C1=C(CN2CCN3C(=S)N(CC(C)(C)C(=O)O)C[C@@H]3C2)NC(c2nccs2)=N[C@H]1c1ccc(F)c(F)c1C` (single isomer, unassigned) [Compound 15B, 3-(7-((6-(3,4-Difluoro-2-methylphenyl)-5-(ethoxycarbonyl)-2-(thiazol-2-yl)-3,6-dihydropyrimidin-4-yl)methyl)-3-thioxohexahydroimidazo[1,5-a]pyrazin-2(3H)-yl)-2,2-dimethylpropanoic acid], in series [1] (setting [4]), the EC50 came to 300 nM. The same compound came in with a CC50 at 6 days in series [2] of 45000 nM.

Turning to `CCOC(=O)C1=C(CN2CCN3C(=S)N(CC(C)(C)C(=O)O)C[C@@H]3C2)NC(c2ncc(F)cc2F)=N[C@H]1c1cccc(F)c1C` (single isomer, unassigned) [Compound 22A, 3-(7-((2-(3,5-difluoropyridin-2-yl)-5-(ethoxycarbonyl)-6-(3-fluoro-2-methylphenyl)-3,6-dihydropyrimidin-4-yl)methyl)-3-thioxohexahydroimidazo-[1,5-a]pyrazin-2(3H)-yl)-2,2-dimethylpropanoic acid], the 50% effective concentration (EC50) in series [1] (setting [4]) was 8.9 nM. Moreover, in series [2], the midpoint of cytotoxicity, the CC50 at 6 days, lay at 12800 nM.

For the compound `CCOC(=O)C1=C(CN2CCN3C(=S)N(CC4(C(=O)O)CC4)CC3C2)NC(c2nccs2)=N[C@H]1c1cccc(F)c1C` (single isomer, unassigned) [Compound 9A], the EC50 in series [1] (setting [3]) worked out at 64 nM. Moreover, the midpoint of cytotoxicity in series [2], the CC50 at 6 days, lay at 14900 nM.

For the origin of these results see US20230165865A1, “HETEROARYLDIHYDROPYRIMIDINE DERIVATIVES AND METHODS OF TREATING HEPATITIS B INFECTIONS” (Janssen Pharmaceutica NV, priority 2018, published 2023).
